The source of these data is PubChem BioAssay (NCI).

The structures appear in SMILES notation.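 Grown in 96-well plates, cells were treated for 48 hours with each compound at five concentrations. Insufficient inhibition: endpoint recorded as highest concentration tested. GI50 marks 50% less growth. Definition used: TGI = concentration required for complete inhibition of growth.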

Some test systems named below: OVCAR-5 ovarian; SF-539 CNS; HOP-62 NSCLC; SNB-19 CNS; MALME-3M melanoma; CCRF-CEM leukemia; KM12 colon; NCI-H522 lung; TK-10 renal; SK-MEL-5 melanoma.
Common to all, as to assay: NCI tumour cell line growth inhibition, 48 h

For `COc1cc(/C=C/C(=N\NC(=O)c2ccccc2)c2sc(Nc3ccc(Cl)c(Cl)c3)nc2C)ccc1O`, the TGI in the assay with OVCAR-5 ovarian is 81.1 µM; with SF-539 CNS it was greater than 100 µM; in the assay on HOP-62 NSCLC, greater than 100 µM; with SNB-19 CNS, greater than 100 µM; with MALME-3M melanoma it was 70.6 µM; in the assay on CCRF-CEM leukemia, greater than 100 µM. The TGI was greater than 100 µM in the assay on KM12 colon, 47.6 µM in the assay with NCI-H522 lung and greater than 100 µM in the assay on TK-10 renal.

In the case of `Cc1ccc(-c2nc(C(Cl)Cl)n3nc(-c4ccccc4)cc3n2)cc1`, the GI50 was 0.566 µM in the assay on HOP-62 NSCLC; greater than 100 µM in the assay on SK-MEL-5 melanoma; greater than 100 µM in the assay with MALME-3M melanoma; greater than 100 µM in the assay on CCRF-CEM leukemia; greater than 100 µM in the assay with NCI-H522 lung. Further, the TGI was 3.15 µM in the assay with HOP-62 NSCLC; greater than 100 µM in the assay with SK-MEL-5 melanoma; greater than 100 µM in the assay with MALME-3M melanoma; greater than 100 µM in the assay with CCRF-CEM leukemia; greater than 100 µM in the assay on NCI-H522 lung.

As to `Clc1cc(Cl)c2c(Cl)cc(Cl)c3c2c1N=S=N3`, the TGI with OVCAR-5 ovarian, in the assay on SF-539 CNS, in the assay with SK-MEL-5 melanoma, in the assay on SNB-19 CNS, in the assay on MALME-3M melanoma and in the assay on CCRF-CEM leukemia was greater than 100 µM each time. Besides, the TGI in the assay with KM12 colon, in the assay on NCI-H522 lung and in the assay with TK-10 renal was greater than 100 µM each time.

Consider `C=C1CC(COc2cc(Cl)nc(N)n2)C1`, for which the GI50 in the assay on OVCAR-5 ovarian is 66.9 µM; in the assay on SK-MEL-5 melanoma, 44.4 µM; in the assay with SNB-19 CNS, 37.2 µM; in the assay with MALME-3M melanoma, 93.3 µM; in the assay on CCRF-CEM leukemia, 69.6 µM; with KM12 colon it was 25.5 µM. In addition, the GI50 with NCI-H522 lung is 27.6 µM.

As for `Cc1sc(C)c(-c2ccc(CO)o2)c1-c1ccc(CO)o1`, the GI50 is greater than 100 µM in the assay with SF-539 CNS; 0.372 µM with HOP-62 NSCLC; greater than 61.5 µM in the assay with SK-MEL-5 melanoma; greater than 100 µM with SNB-19 CNS; greater than 100 µM in the assay with MALME-3M melanoma; 49.1 µM in the assay on CCRF-CEM leukemia. Besides, the GI50 with KM12 colon is greater than 83.5 µM; in the assay on NCI-H522 lung, 41.9 µM; in the assay on TK-10 renal it was 0.116 µM. Further, the TGI with SF-539 CNS, in the assay with HOP-62 NSCLC, with SK-MEL-5 melanoma, in the assay with SNB-19 CNS, in the assay with MALME-3M melanoma and in the assay on CCRF-CEM leukemia was greater than 100 µM each time. In addition, the TGI in the assay on KM12 colon is greater than 100 µM; in the assay with NCI-H522 lung, greater than 100 µM; in the assay with TK-10 renal it was 0.426 µM.

Turning to `FC(F)(F)c1ccc2c(Nc3cccc(C4CC(c5ccccc5)=NN4c4ccc(Cl)cc4)c3)ccnc2c1` (stereo not given), the GI50 is 4.13 µM in the assay on OVCAR-5 ovarian; 4.78 µM in the assay on SF-539 CNS; 8.77 µM with SK-MEL-5 melanoma; 4.38 µM in the assay on SNB-19 CNS; 4.38 µM with MALME-3M melanoma; 3.32 µM with CCRF-CEM leukemia. For the same molecule, the values for the GI50 with KM12 colon, with NCI-H522 lung and in the assay on TK-10 renal were 3.16 µM, 6.16 µM and 4.76 µM, respectively. Further, the TGI with OVCAR-5 ovarian was 20.5 µM; in the assay with SF-539 CNS it was 19.5 µM; in the assay on SK-MEL-5 melanoma, 26.5 µM; in the assay on SNB-19 CNS, 27 µM; in the assay with MALME-3M melanoma, 21 µM; in the assay on CCRF-CEM leukemia it was 38.5 µM. Moreover, the TGI with KM12 colon amounted to 16.7 µM; in the assay on NCI-H522 lung it was 38.6 µM; in the assay with TK-10 renal, 21.4 µM.

As for `CCN(Cc1c(F)cccc1F)c1ccc(CO)c(Cl)c1`, the GI50 was 0.0353 µM in the assay on OVCAR-5 ovarian; 20.5 µM with SF-539 CNS; 0.327 µM in the assay on HOP-62 NSCLC; 13.5 µM in the assay with SK-MEL-5 melanoma; 24.4 µM in the assay on SNB-19 CNS; 17.5 µM in the assay with MALME-3M melanoma. Further, the GI50 was 25.7 µM with CCRF-CEM leukemia, 11.4 µM with KM12 colon and 15.1 µM in the assay on NCI-H522 lung. For the same molecule, the TGI in the assay with OVCAR-5 ovarian is 0.147 µM; in the assay on SF-539 CNS, greater than 59.2 µM; in the assay on HOP-62 NSCLC, 34.7 µM; in the assay with SK-MEL-5 melanoma, 26.7 µM; in the assay with SNB-19 CNS, greater than 100 µM; in the assay on MALME-3M melanoma, 36.6 µM. Further, the TGI was 98.5 µM with CCRF-CEM leukemia, 26.8 µM in the assay with KM12 colon and 38.8 µM in the assay with NCI-H522 lung.

In the case of `O=C(Nc1ccc(S(=O)(=O)N[C@@H](C(=O)O)c2ccccc2)cc1)c1ccc(F)cc1`, the TGI in the assay on OVCAR-5 ovarian, in the assay on SF-539 CNS, in the assay with SK-MEL-5 melanoma, in the assay with SNB-19 CNS, in the assay on MALME-3M melanoma and in the assay with CCRF-CEM leukemia was greater than 100 µM throughout. The TGI with KM12 colon, in the assay with NCI-H522 lung and in the assay with TK-10 renal was greater than 100 µM throughout.

For `CN(C)C(=S)/N=c1\ss/c(=N\S(=O)(=O)c2ccccc2)n1-c1ccccc1`, the TGI in the assay on OVCAR-5 ovarian was greater than 100 µM; in the assay with SF-539 CNS, greater than 100 µM; in the assay on HOP-62 NSCLC it was 98.3 µM; in the assay on SK-MEL-5 melanoma, 78.3 µM; with MALME-3M melanoma, greater than 100 µM; in the assay with CCRF-CEM leukemia it was greater than 100 µM. Further, the TGI in the assay on KM12 colon, in the assay on NCI-H522 lung and in the assay on TK-10 renal was greater than 100 µM in each case.

In the case of `CCOc1cccc2nc3cccc(C(=O)NCCN(C)C)c3nc12`, the TGI with OVCAR-5 ovarian came to 5.28 µM; with SF-539 CNS it was 6.77 µM; with HOP-62 NSCLC, 2.18 µM; with SNB-19 CNS it was 11.2 µM; with MALME-3M melanoma, 2.42 µM; with KM12 colon, 9.36 µM. The TGI was greater than 100 µM in the assay with NCI-H522 lung and 7.9 µM in the assay with TK-10 renal.

Regarding `COC(=O)NC/C=C\c1nc(CC/C=C\C(=O)OC2CC3CC(=O)O[C@@H](/C=C/CC(C)C)C[C@@H]4CCC(C)C(C[C@@H](OC)CC(C2)O3)O4)co1` (stereo not given in full), the GI50 in the assay with OVCAR-5 ovarian was less than 0.01 µM; with SF-539 CNS, less than 0.01 µM; in the assay with HOP-62 NSCLC, less than 0.01 µM; with SK-MEL-5 melanoma, less than 0.01 µM; in the assay with SNB-19 CNS, 34.4 µM; in the assay with MALME-3M melanoma, 25.5 µM. In addition, the GI50 was 2.67 µM with KM12 colon and less than 0.01 µM in the assay on NCI-H522 lung. In addition, the TGI with OVCAR-5 ovarian is greater than 100 µM; in the assay on SF-539 CNS, 38.3 µM; in the assay with HOP-62 NSCLC, 79 µM; in the assay with SK-MEL-5 melanoma, 19 µM; in the assay with SNB-19 CNS it was greater than 100 µM; in the assay on MALME-3M melanoma, 93.4 µM. Further, the TGI in the assay with KM12 colon is greater than 100 µM; in the assay with NCI-H522 lung, 87.7 µM.

As for `N#Cc1c(N)c(C(=O)O)nn(-c2cccc(C(F)(F)F)c2)c1=O`, the TGI in the assay with OVCAR-5 ovarian, with SF-539 CNS, in the assay with SK-MEL-5 melanoma, with SNB-19 CNS, in the assay with MALME-3M melanoma and in the assay on CCRF-CEM leukemia was greater than 100 µM throughout. Moreover, the TGI in the assay with KM12 colon, with NCI-H522 lung and in the assay on TK-10 renal was greater than 100 µM in each case.
